The values that follow come from patent US8633183B2 (priority 2010, dated 2014).

Molecules are shown by their SMILES.

The target in the assay is PI3Kalpha (Homo sapiens (Human), UniProt P42336). The settings on record: read-out: IC50 PI3K.
Chain of PI3Kalpha (P42336 whole entry, looked up): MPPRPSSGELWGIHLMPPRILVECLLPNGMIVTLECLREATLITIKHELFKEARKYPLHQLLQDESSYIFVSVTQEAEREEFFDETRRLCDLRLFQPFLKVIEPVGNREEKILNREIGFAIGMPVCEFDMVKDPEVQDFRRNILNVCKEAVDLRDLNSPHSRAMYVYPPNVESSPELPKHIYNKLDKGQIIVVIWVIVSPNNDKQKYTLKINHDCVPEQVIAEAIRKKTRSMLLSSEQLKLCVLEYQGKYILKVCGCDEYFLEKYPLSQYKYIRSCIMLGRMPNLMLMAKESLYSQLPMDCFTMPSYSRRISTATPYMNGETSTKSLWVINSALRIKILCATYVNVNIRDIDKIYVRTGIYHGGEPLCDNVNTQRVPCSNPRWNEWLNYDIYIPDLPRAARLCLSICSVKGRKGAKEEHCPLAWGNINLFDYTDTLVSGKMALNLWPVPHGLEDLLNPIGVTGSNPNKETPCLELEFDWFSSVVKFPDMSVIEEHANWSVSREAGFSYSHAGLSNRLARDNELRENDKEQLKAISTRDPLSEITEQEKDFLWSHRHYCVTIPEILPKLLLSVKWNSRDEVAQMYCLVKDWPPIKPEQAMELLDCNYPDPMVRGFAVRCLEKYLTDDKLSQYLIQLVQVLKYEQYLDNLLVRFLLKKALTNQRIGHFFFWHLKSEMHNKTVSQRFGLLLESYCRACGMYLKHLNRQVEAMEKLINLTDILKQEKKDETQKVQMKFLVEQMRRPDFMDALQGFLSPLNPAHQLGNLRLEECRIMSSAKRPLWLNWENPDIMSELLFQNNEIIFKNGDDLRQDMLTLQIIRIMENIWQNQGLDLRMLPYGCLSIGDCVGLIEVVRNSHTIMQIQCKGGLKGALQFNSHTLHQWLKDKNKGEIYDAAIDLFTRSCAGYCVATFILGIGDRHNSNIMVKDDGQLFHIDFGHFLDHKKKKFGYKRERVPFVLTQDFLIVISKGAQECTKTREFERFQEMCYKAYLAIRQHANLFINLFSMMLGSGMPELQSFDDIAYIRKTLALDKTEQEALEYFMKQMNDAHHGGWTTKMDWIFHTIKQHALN
Experimental: Plot the concentration of each compound versus the emission ratio. […] Determination of IC50 values can be obtained by curve fitting (sigmoidal dose response, variable slope) using Prism software from GraphPad).
Method Type: Filter-Binding-Assay
Compounds are serially diluted in assay buffer+6% DMSO and 10 μl of each dilution is added per well of a 96-well plate (compounds are tested in duplicates) and mixed with 30 μl of the lipid vesicles containing PDGFR-Peptide (0.5 μM final) and PI3K alpha (25 ng/well final). The mixture is then incubated for 20 minutes at room temperature. Subsequently, 20 μl of assay buffer containing 3 μM cold ATP and 0.5 μCi/20 μl 33P-ATP are added. The plates are then incubated at room temperature for 120 minutes (shaking with 300 rpm). The reaction mix is transferred onto filter plates using “filtermate harvester” from Packard: filter plates are rinsed with PBS, then the reaction mix is filtered onto the filter plate, washed 5 times with PBS and are allowed to dry for 30-60 minutes at 50° C.
As positive control serve wells containing vehicle controls (1% DMSO in assay buffer), showing non-inhibited kinase activity (high values). Wells containing assay buffer instead of enzyme can serve as control for background activity (low values).
Calculate IC50 values using the Smiley program (based on GrapPad Prism)
For `CCc1ncnc(-c2ccc(C(=O)N3CCC(N4CCOCC4)CC3)c(C)c2)c1C#Cc1ccc(N)nc1` [Example E-91], the IC50 turned out to be 179 nM.

Take `CCc1ncnc(-c2ccc(C(=O)N3CCOCC3)c(C)c2)c1C#Cc1ccc(N)nc1` [Example E-92]: the IC50 turned out to be 59.5 nM.

For `CCc1ncnc(-c2ccc(C(=O)N3CC(O)CO3)c(C)c2)c1C#Cc1ccc(N)nc1` (stereo not drawn) [Example E-93], the IC50 stood at 107 nM.

In the case of `CCc1ncnc(-c2ccc(C(=O)N3CCCO3)c(C)c2)c1C#Cc1ccc(N)nc1` [Example E-94], the IC50 was 146 nM.

`CCc1ncnc(-c2ccc(C(=O)N3CCC4(CCN(C)CC4)CC3)c(C)c2)c1C#Cc1ccc(N)nc1` [Example E-97]: the 50% inhibitory concentration (IC50) was 367 nM.

Consider `CCc1ncnc(-c2ccc(C(=O)N3CCC(N4CCCCCC4)CC3)c(C)c2)c1C#Cc1ccc(N)nc1` [Example E-102], for which the IC50 came out at 289 nM.

As to `CCc1ncnc(-c2ccc(C(=O)N(C)OC)c(C)c2)c1C#Cc1ccc(N)nc1` [Example E-104], the IC50 amounted to 71.9 nM.

Consider `CCc1ncnc(-c2ccc(C(=O)N(C)C3CCS(=O)(=O)C3)c(C)c2)c1C#Cc1ccc(N)nc1` (stereo not drawn) [Example E-105], for which the IC50 came out at 51.7 nM.

With `CCOC(=O)N1CCN(C(=O)c2ccc(-c3ncnc(CC)c3C#Cc3ccc(N)nc3)cc2C)CC1` [Example E-107], the IC50 was determined as 62.9 nM.

For the compound `CCc1ncnc(-c2ccc(C(=O)N3CCN(C(C)=O)CC3)c(C)c2)c1C#Cc1ccc(N)nc1` [Example E-108], the IC50 worked out at 71.5 nM.

Take `CCc1ncnc(-c2ccc(C(=O)N3CCC(N4CCCCC4)CC3)c(C)c2)c1C#Cc1ccc(N)nc1` [Example E-109]: the 50% inhibitory concentration (IC50) is 259 nM.

Take `CCc1ncnc(-c2ccc(C(=O)N3CCC4(CCN(C)C4)C3)c(C)c2)c1C#Cc1ccc(N)nc1` (stereo not drawn) [Example E-112]: the IC50 worked out at 249 nM.

`CCc1ncnc(-c2ccc(C(=O)N3CCN(CC4CCCCC4)CC3)c(C)c2)c1C#Cc1ccc(N)nc1` [Example E-113]: the IC50 is 414 nM.

For `CCc1ncnc(-c2ccc(C(=O)N3CCN(Cc4ccccc4)CC3)c(C)c2)c1C#Cc1ccc(N)nc1` [Example E-115], the IC50 worked out at 154 nM.

With `CCc1ncnc(-c2ccc(C(=O)N3CCN(CC4CC4)CC3)c(C)c2)c1C#Cc1ccc(N)nc1` [Example E-116], the 50% inhibitory concentration (IC50) turned out to be 110 nM.

Regarding `CCc1ncnc(-c2ccc(C(=O)N3CCC4(CC3)OCCCO4)c(C)c2)c1C#Cc1ccc(N)nc1` [Example E-117], the IC50 turned out to be 73.5 nM.

Turning to `CCc1ncnc(-c2ccc(C(=O)N3CCC(C4CCN(C)CC4)CC3)c(C)c2)c1C#Cc1ccc(N)nc1` [Example E-119], the IC50 was found to be 281 nM.

`CCc1ncnc(-c2ccc(C(=O)NC3CCCN(C)C3)c(C)c2)c1C#Cc1ccc(N)nc1` (stereo not drawn) [Example E-120]: the IC50 turned out to be 349 nM.

On to `CCc1ncnc(-c2ccc(C(=O)N3CC[S+]([O-])CC3)c(C)c2)c1C#Cc1ccc(N)nc1` [Example E-121], for which the IC50 worked out at 63.9 nM.

For `CCc1ncnc(-c2ccc(C(=O)N3CCNCC3)c(C)c2)c1C#Cc1ccc(N)nc1` [Example E-127], the IC50 turned out to be 158 nM.

Take `CCc1ncnc(-c2ccc(C(=O)N(C)O)c(C)c2)c1C#Cc1ccc(N)nc1` [Example E-128]: the IC50 amounted to 37.2 nM.

As for `CCc1ncnc(-c2ccc(C(=O)N3CCCN(C)CC3)c(C)c2)c1C#Cc1ccc(N)nc1` [Example E-129], the IC50 stood at 237 nM.

As for `CCc1ncnc(-c2ccc(C(=O)N3CCN(c4ccccn4)CC3)c(C)c2)c1C#Cc1ccc(N)nc1` [Example E-130], the IC50 was 69.1 nM.

Consider `CCc1ncnc(-c2ccc(C(=O)N3CCN(c4ccncc4)CC3)c(C)c2)c1C#Cc1ccc(N)nc1` [Example E-131], for which the IC50 was 158 nM.

Regarding `CCc1ncnc(-c2ccc(C(=O)N3CCC(O)CC3)c(C)c2)c1C#Cc1ccc(N)nc1` [Example E-132], the IC50 turned out to be 45.5 nM.

As for `CCc1ncnc(-c2ccc(C(=O)N3CCCOCC3)c(C)c2)c1C#Cc1ccc(N)nc1` [Example E-133], the IC50 worked out at 77.8 nM.

Consider `CCc1ncnc(-c2ccc(C(=O)NCC3(C)COC3)c(C)c2)c1C#Cc1ccc(N)nc1` [Example E-134], for which the IC50 came to 44.9 nM.

In the case of `CCc1ncnc(-c2ccc(C(=O)N3CCN(c4ccccc4)CC3)c(C)c2)c1C#Cc1ccc(N)nc1` [Example E-135], the IC50 stood at 149 nM.

`CCc1ncnc(-c2ccc(C(=O)N3CCN4CCC[C@@H]4C3)c(Cl)c2)c1C#Cc1ccc(N)nc1` [Example E-139]: the IC50 was found to be 160 nM.

Regarding `CCc1ncnc(-c2ccc(C(=O)N3CCN4CCC[C@@H]4C3)c(F)c2)c1C#Cc1ccc(N)nc1` [Example E-140], the IC50 was 198 nM.

As for `CCc1ncnc(-c2ccc(C(=O)N3CCN4CCC[C@H]4C3)c(Cl)c2)c1C#Cc1ccc(N)nc1` [Example E-141], the IC50 turned out to be 260 nM.

As to `CCc1ncnc(-c2ccc(C(=O)N3CCN4CCC[C@H]4C3)c(F)c2)c1C#Cc1ccc(N)nc1` [Example E-142], the IC50 turned out to be 107 nM.

As to `CCc1ncnc(-c2ccc(C(=O)N3CCN4CCCC[C@H]4C3)c(Cl)c2)c1C#Cc1ccc(N)nc1` [Example E-143], the IC50 was determined as 127 nM.

As for `CCc1ncnc(-c2ccc(C(=O)N3CCN4CCCC[C@H]4C3)c(F)c2)c1C#Cc1ccc(N)nc1` [Example E-144], the concentration for half-maximal inhibition (IC50) is 169 nM.

For the compound `CCc1ncnc(-c2ccc(C(=O)N3CCN4CCCC[C@@H]4C3)c(F)c2)c1C#Cc1ccc(N)nc1` [Example E-145], the half-inhibitory concentration (IC50) was 358 nM.

In the case of `CCc1ncnc(-c2cc(F)c(C(=O)N3CCN(CCCS(C)(=O)=O)CC3)c(F)c2)c1C#Cc1ccc(N)nc1` [Example E-146], the IC50 came to 45.8 nM.

Regarding `CCc1ncnc(-c2cc(F)c(C(=O)N3CCn4ccnc4C3)c(F)c2)c1C#Cc1ccc(N)nc1` [Example E-147], the IC50 stood at 55.7 nM.

Consider `CCc1ncnc(-c2cc(F)c(C(=O)N3CCn4cnnc4C3)c(F)c2)c1C#Cc1ccc(N)nc1` [Example E-148], for which the IC50 came to 70.6 nM.

Regarding `CCc1ncnc(-c2cc(F)c(C(=O)N3CCn4c(C)cnc4C3)c(F)c2)c1C#Cc1ccc(N)nc1` [Example E-149], the IC50 came out at 85.8 nM.

Take `CCc1ncnc(-c2cc(F)c(C(=O)N3CCC4(CC3)COC4)c(F)c2)c1C#Cc1ccc(N)nc1` [Example E-150]: the IC50 came to 120 nM.

Turning to `CCc1ncnc(-c2cc(F)c(C(=O)N3CCn4cnnc4C3)c(Cl)c2)c1C#Cc1ccc(N)nc1` [Example E-156], the IC50 was 18.3 nM.

As to `CCc1ncnc(-c2cc(F)c(C(=O)N3CCn4c(C)cnc4C3)c(Cl)c2)c1C#Cc1ccc(N)nc1` [Example E-157], the IC50 stood at 37.5 nM.

In the case of `CCc1ncnc(-c2cc(F)c(C(=O)N3CCC4(CC3)COC4)c(Cl)c2)c1C#Cc1ccc(N)nc1` [Example E-158], the IC50 came out at 122 nM.

As for `CCc1ncnc(-c2cc(F)c(C(=O)N3CCN(CCNS(C)(=O)=O)CC3)c(Cl)c2)c1C#Cc1ccc(N)nc1` [Example E-159], the IC50 came out at 25.8 nM.

Regarding `CCc1ncnc(-c2cc(F)c(C(=O)N3CCN(C4CCC4)CC3)c(Cl)c2)c1C#Cc1ccc(N)nc1` [Example E-160], the IC50 worked out at 115 nM.

As for `CCc1ncnc(-c2cc(F)c(C(=O)N3CCC4(CC3)CNC4)c(F)c2)c1C#Cc1ccc(N)nc1` [Example E-161], the IC50 is 925 nM.

As for `CCc1ncnc(-c2cc(F)c(C(=O)N3CCC4(CC3)CNC4)c(Cl)c2)c1C#Cc1ccc(N)nc1` [Example E-162], the IC50 was 540 nM.

Turning to `CCc1ncnc(-c2ccc(C(=O)N3CCn4c(COC)nnc4C3)c(F)c2)c1C#Cc1ccc(N)nc1` [Example E-163], the IC50 was 50.8 nM.

As for `CCc1ncnc(-c2ccc(C(=O)N3CCC4(CC3)COC4)c(F)c2)c1C#Cc1ccc(N)nc1` [Example E-164], the IC50 turned out to be 154 nM.

Turning to `C#CCN1CCN(C(=O)c2ccc(-c3ncnc(CC)c3C#Cc3ccc(N)nc3)cc2F)CC1` [Example E-165], the IC50 is 178 nM.

`CCc1ncnc(-c2ccc(C(=O)N3CCC(F)(F)CC3)c(F)c2)c1C#Cc1ccc(N)nc1` [Example E-166]: the IC50 amounted to 154 nM.

With `CCc1ncnc(-c2ccc(C(=O)NCCN3CCNCC3)c(F)c2)c1C#Cc1ccc(N)nc1` [Example E-167], the IC50 was 157 nM.

Turning to `CCc1ncnc(-c2ccc(C(=O)NCC3CCNCC3)c(F)c2)c1C#Cc1ccc(N)nc1` [Example E-168], the IC50 was determined as 373 nM.

For `CCc1ncnc(-c2ccc(C(=O)N(C)C3CCOCC3)c(F)c2)c1C#Cc1ccc(N)nc1` [Example E-169], the IC50 came out at 70 nM.

Take `CCc1ncnc(-c2cc(F)c(C(=O)N3CCn4c(COC)nnc4C3)c(F)c2)c1C#Cc1ccc(N)nc1` [Example E-170]: the IC50 came out at 96.5 nM.

Turning to `CCc1ncnc(-c2cc(F)c(C(=O)NCCN3CCNCC3)c(F)c2)c1C#Cc1ccc(N)nc1` [Example E-174], the IC50 is 165 nM.

On to `CCc1ncnc(-c2cc(F)c(C(=O)NCC3CCNCC3)c(F)c2)c1C#Cc1ccc(N)nc1` [Example E-175], for which the IC50 turned out to be 163 nM.

Regarding `CCc1ncnc(-c2cc(F)c(C(=O)N(C)C3CCN(C)CC3)c(F)c2)c1C#Cc1ccc(N)nc1` [Example E-176], the IC50 came out at 491 nM.

`CCc1ncnc(-c2ccc(C(=O)N3CCC(C(C)(C)O)CC3)c(F)c2)c1C#Cc1ccc(NC)nc1` [Example E-177]: the IC50 worked out at 337 nM.

`CCc1ncnc(-c2ccc(C(=O)N3CCC(N4CCOCC4)CC3)c(F)c2)c1C#Cc1ccc(NC)nc1` [Example E-178]: the IC50 turned out to be 335 nM.

With `CCc1ncnc(-c2ccc(C(=O)N3CCN(C4CCOCC4)CC3)c(F)c2)c1C#Cc1ccc(NC)nc1` [Example E-179], the IC50 is 276 nM.

For the compound `CCc1ncnc(-c2ccc(C(=O)N3CC[C@@H](N(C)C)C3)c(F)c2)c1C#Cc1ccc(NC)nc1` [Example E-180], the 50% inhibitory concentration (IC50) came to 357 nM.

As to `CCc1ncnc(-c2ccc(C(=O)N3CC[C@H](N(C)C)C3)c(F)c2)c1C#Cc1ccc(NC)nc1` [Example E-181], the IC50 turned out to be 275 nM.

As to `CCc1ncnc(-c2ccc(C(=O)N3CCN(C)CC3)c(F)c2)c1C#Cc1ccc(NC)nc1` [Example E-182], the IC50 was 247 nM.

On to `CCc1ncnc(-c2ccc(C(=O)N3CCC(N4CCN(C)CC4)CC3)c(F)c2)c1C#Cc1ccc(NC)nc1` [Example E-183], for which the IC50 worked out at 308 nM.

As for `CCc1ncnc(-c2ccc(C(=O)N3CCC(C(C)(C)O)CC3)c(Cl)c2)c1C#Cc1ccc(NC)nc1` [Example E-184], the IC50 is 399 nM.

One may read the IC50 as the concentration that gives 50% inhibition.
